pIC50: −log10 of the molar value. Like-named read-outs stand apart in the source and are kept apart here.
Assays:
Assay in all cases: cells
Format in all cases: cell-based
[1] = system: HCT116; details: for pIC50: read-out: Basal_Viability ATP HCT116 summarized IC50
[2] = system: DLD-1; details: for pIC50: read-out: Basal_Viability ATP DLD-1 summarized IC50
[3] = system: Colo320; details: for pIC50: read-out: Basal_Viability ATP Colo 320 summarized IC50
[4] = system: RKO; details: for pIC50: read-out: Basal_Viability ATP RKO summarized IC50
[5] = system: SNU-C1; details: for pIC50: read-out: Basal_Viability ATP SNU-C1 summarized IC50
[6] = system: SW480; details: for pIC50: read-out: Basal_Viability ATP SW480 summarized IC50
[7] = system: HT-29; details: for pIC50: read-out: Basal_Viability ATP HT-29 summarized IC50

| Structure (SMILES) | Basal_Viability ATP HCT116 IC50/EC50 ([1]; assay number 25, basal) [µM] | Basal_Viability ATP DLD-1 IC50/EC50 ([2]; assay number 23, basal) [µM] | Basal_Viability ATP Colo 320 IC50/EC50 ([3]; assay number 27, basal) [µM] | Basal_Viability ATP RKO IC50/EC50 ([4]; assay number 29, basal) [µM] | Basal_Viability ATP SNU-C1 IC50/EC50 ([5]; assay number 30, basal) [µM] | Basal_Viability ATP SW480 IC50/EC50 ([6]; assay number 24, basal) [µM] | Basal_Viability ATP HT-29 IC50/EC50 ([7]; assay number 28, basal) [µM] | pIC50 ([1]; assay number 25, basal) | pIC50 ([2]; assay number 23, basal) | pIC50 ([3]; assay number 27, basal) | pIC50 ([4]; assay number 29, basal) | pIC50 ([5]; assay number 30, basal) | pIC50 ([6]; assay number 24, basal) | pIC50 ([7]; assay number 28, basal) | other results |
| --- | --- | --- | --- | --- | --- | --- | --- | --- | --- | --- | --- | --- | --- | --- | --- |
| CC(C)NCC(O)COc1ccc(CCOCC2CC2)cc1 (stereo not drawn) [NCGC00015159-11] | > 20 |  |  |  |  |  |  |  |  |  |  |  |  |  | Basal_Viability ATP DLD-1 IC50/EC50 ([2]; assay number 23): > 20 µM; Basal_Viability ATP Colo 320 IC50/EC50 ([3]; assay number 27): 6.1657 µM; Basal_Viability ATP RKO IC50/EC50 ([4]; assay number 29): > 20 µM; Basal_Viability ATP SNU-C1 IC50/EC50 ([5]; assay number 30): > 20 µM; Basal_Viability ATP SW480 IC50/EC50 ([6]; assay number 24): > 20 µM; Basal_Viability ATP HT-29 IC50/EC50 ([7]; assay number 28): > 20 µM |
| CCc1cccc2c3c([nH]c12)C(CC)(CC(=O)O)OCC3 (stereo not drawn) [NCGC00015399-16] | > 20 | > 20 | > 20 | > 20 | > 20 | > 20 | > 20 |  |  |  |  |  |  |  |  |
| Cc1c(NC(=O)c2cccnc2)c(=O)n(-c2ccccc2)n1C [NCGC00016605-08] |  |  |  |  |  |  |  |  |  |  |  |  |  |  | IC50/EC50, Basal_Viability ATP HCT116 (assay number 25) ([1]; basal): > 20 µM; IC50/EC50, Basal_Viability ATP DLD-1 (assay number 23) ([2]; basal): > 20 µM; IC50/EC50, Basal_Viability ATP Colo 320 (assay number 27) ([3]; basal): > 20 µM; IC50/EC50, Basal_Viability ATP RKO (assay number 29) ([4]; basal): > 20 µM; IC50/EC50, Basal_Viability ATP SNU-C1 (assay number 30) ([5]; basal): > 20 µM; IC50/EC50, Basal_Viability ATP SW480 (assay number 24) ([6]; basal): > 20 µM; IC50/EC50, Basal_Viability ATP HT-29 (assay number 28) ([7]; basal): > 20 µM |
| O=C(O)c1ccccc1OP(=O)(O)O [NCGC00016668-06] |  |  |  |  |  |  |  | < 4.70 | < 4.70 | < 4.70 | < 4.70 | < 4.70 | < 4.70 | < 4.70 |  |
| CCn1cc(C(=O)O)c(=O)c2cnc(N3CCNCC3)nc21 [NCGC00016866-11] | > 20 | > 20 | > 20 | > 20 | > 20 | > 20 | > 20 |  |  |  |  |  |  |  |  |
| O=C(O)c1ccccc1S [NCGC00018107-05] |  |  |  |  |  |  |  | < 4.70 | < 4.70 | < 4.70 | < 4.70 | < 4.70 | < 4.70 | < 4.70 |  |
| Cc1ccc(Cl)c(Nc2ccccc2C(=O)[O-])c1Cl.[Na+] [NCGC00023217-08] | > 20 | 15.1129 | > 20 | > 20 | > 20 | > 20 | > 20 |  |  |  |  |  |  |  |  |
| NC(=O)N/N=C/c1ccc([N+](=O)[O-])o1 [NCGC00090686-11] |  |  |  |  |  |  |  | < 4.70 | < 4.70 | < 4.70 | < 4.70 | < 4.70 | < 4.70 | < 4.70 |  |
| Oc1c(Cl)cc(Cl)c(Cl)c1Cc1c(O)c(Cl)cc(Cl)c1Cl [NCGC00091195-08] |  |  |  |  |  |  |  |  |  |  |  |  |  |  | pIC50 [1]: 7.51; pIC50 [2]: 7.80; pIC50 [3]: 7.24; pIC50 [4]: 6.96; pIC50 [5]: 7.49; pIC50 [6]: 8.52; pIC50 [7]: 6.34 |
